From US11034653B2, “Crystal form of estrogen receptor inhibitor and preparation method therefor” (LUOXIN PHARMACEUTICAL (SHANGHAI) CO., LTD., priority 2017, dated 2021)

What was measured:
[1] = Long-term crystal form stability test under high temperature and high humidity conditions (XRPD); assay type: physicochemical; conditions: 40° C., 75% RH, 10th day and 31th day
[2] = Hygroscopicity study by dynamic vapor sorption (DVS); assay type: physicochemical; conditions: 25° C./80% RH
Description: Dynamic Vapor Sorption (DVS)
Instrument model: SMS DVS Advantage dynamic vapor sorption analyzer
Test conditions: samples (10-15 mg) were disposed in the DVS sample tray for testing.
The detailed DVS parameters were as follows:
Balance: dm/dt=0.01%/min (shortest: 10 min, longest: 180 min)
Drying: drying for 120 min at 0% RH
RH (%) test step range: 0%-90%-0%
The hygroscopicity evaluation is classified as follows:
SMS DVS Advantage dynamic vapor sorption analyzer

[3] = Solid stability test under high humidity and light irradiation conditions (XRPD, HPLC); assay type: physicochemical
Description: High Performance Liquid Chromatograph (HPLC)
The bottles containing samples placed under high humidity condition were sealed with aluminum foil. Small holes were made in the aluminum foil to ensure that the samples can fully contact with the ambient air. The samples were tested on the 10th day. The bottles containing samples placed under light condition were left open and the samples were exposed to a light source, and tested after being irradiated enough energy. The test results were compared with the initial test results on day 0.

[4] = cited from earlier work
breast cancer patients = conditions: intramuscular injection; cited from earlier work

Structure (SMILES): CC/C(=C(/c1ccc(/C=C/C(=O)O)cc1)c1[nH]c2ccccc2c1Cl)c1ccc(F)cc1Cl
- Crystal form stability (conclusion) [1]: stable
- Hygroscopicity classification [2]: almost non-hygroscopic
- ΔW, weight increase caused by hygroscopy ([2]; DVS): 0.1687%
- Crystal form (XRPD) ([3]; 0 day): Crystal form A
- Purity (%) ([3]; 0 day): 96.99%
- Related substance at relative retention time 0.97 (HPLC) ([3]; 0 day): 0.21
- Related substance at relative retention time 1.02 (HPLC) ([3]; 0 day): 0.36
- Related substance at relative retention time 1.05 (HPLC) ([3]; 0 day): 0.30
- Total content of related substances (%) ([3]; 0 day): 0.87%
- Crystal form (XRPD) ([3]; High humidity (room temperature/relative humidity 92.5%, exposed), 10th day): Crystal form A
- Related substance at relative retention time 0.97 (HPLC) ([3]; High humidity, 10 days): 0.22
- Related substance at relative retention time 1.02 (HPLC) ([3]; High humidity, 10 days): 0.23
- Related substance at relative retention time 1.05 (HPLC) ([3]; High humidity, 10 days): 0.31
- Total content of related substances (%) ([3]; High humidity, 10 days): 0.77%
- Purity (%) ([3]; Light irradiation): 101.09%
- Related substance at relative retention time 0.88 (HPLC) ([3]; Light irradiation): 0.05
- Related substance at relative retention time 0.97 (HPLC) ([3]; Light irradiation): 0.22
- Related substance at relative retention time 0.98 (HPLC) ([3]; Light irradiation): 0.17
- Related substance at relative retention time 1.02 (HPLC) ([3]; Light irradiation): 0.23
- Related substance at relative retention time 1.04 (HPLC) ([3]; Light irradiation): 0.13
- Related substance at relative retention time 1.05 (HPLC) ([3]; Light irradiation): 0.17
- Total content of related substances (%) ([3]; Light irradiation): 0.98%
- Crystal form (XRPD) ([3]; Light irradiation (1ICH, exposed)): Crystal form A
- Solid stability (conclusion) ([3]; high humidity and light irradiation condition): stable

Structure (SMILES): C[C@]12CC[C@@H]3c4ccc(O)cc4C[C@@H](CCCCCCCCC[S+]([O-])CCCC(F)(F)C(F)(F)F)[C@H]3[C@@H]1CC[C@@H]2O (some centres unmarked) [fulvestrant]
- oral bioavailability [4]: zero
- breast cancer patients who have shown a clinical response (breast cancer patients): about 50%
